According to patent publication US20210128609A1, “ONCOLOGY TREATMENTS USING ZINC AGENTS” (XYLONIX IP HOLDINGS PTE. LTD., priority 2018, published 2021):

Tests used:
Assay type in all cases: cell-based
[1] = tested on: DU 145; experiment: CellTiter-Glo cell viability, DU 145
Experimental: (§1) The 50% inhibitory concentration (IC50) was determined in the cancer cell lines using CellTiter-Glo luminescent cell viability assay after incubation with different concentrations of active agents. Each cell line was treated with active Zn(II) agent, a standard chemotherapy drug as reference control, and culture medium as vehicle control. Cell Lines. All cell lines were cultured in media supplemented with 10-15% FBS, at a temperature of 37° C., 5% CO2, and 95% humidity. The reference control drug for all cell lines was cisplatin, to be used for genomic analysis. The cell lines tested, the tissue of origin are shown below in Table 1: Procedure for Determining Half Maximal Inhibition Concentration IC50 • 1. Harvested cells during the logarithmic growth period and count cell number using Count-star. • 2. Adjusted cell concentrations to 4.44×10^4 cells/mL with respective culture medium. • 3. Added 90 μL cell suspensions to two 96-well plates (plates A and B) with the final cell density of 4×10^3 cells/well. (cell concentration was adjusted according to the data base or density optimization assay.) • 4a. Next day: For the plates of TO reading: • 1) Added 10 μL culture medium to each well of plate A for TO reading. • 2) Equilibrated the plate and its content at RT for approximately 30 min. • 3) Added 50 μL CellTiter-Glo reagent to each well. • 4) Mixed content for 5 min on an orbital shaker to induce cell lysis. • 5) Allowed the plate to incubate at RT for 20 min to stabilize luminescent signal. • 6) Recorded luminescence (TO) using EnVision Multi Label Reader. • 4b. For the plates of test reading: • 1) Prepared 10× solution of Zn(II) agent test article. […] The formula for calculating surviving rate is shown below and the absolute IC50 (EC50) was calculated according to the dose-response curve generated by GraphPad Prism 5.0. • 12) The surviving rate (%)=(LumTest article−LumMedium control)/(LumNon-treated−LumMedium control)×100%.

[2] = tested on: ML-2; experiment: CellTiter-Glo cell viability, ML-2
Experimental: as §1

[3] = tested on: SK-HEP-1; experiment: CellTiter-Glo cell viability, SK-HEP-1
Experimental: as §1

[4] = tested on: PC-3; experiment: CellTiter-Glo cell viability, PC-3
Experimental: as §1

[5] = tested on: JVM-3; experiment: CellTiter-Glo cell viability, JVM-3
Experimental: as §1

[6] = tested on: MCF7; experiment: CellTiter-Glo cell viability, MCF7
Experimental: (§2) The 50% inhibitory concentration (IC50) was determined in the cancer cell lines using CellTiter-Glo luminescent cell viability assay after incubation with different concentrations of active agents. Each cell line was treated with active Zn(II) agent, a standard chemotherapy drug as reference control, and culture medium as vehicle control. Cell Lines. All cell lines were cultured in media supplemented with 10-15% FBS, at a temperature of 37° C., 5% CO2, and 95% humidity. The reference control drug for all cell lines was cisplatin, to be used for genomic analysis. The cell lines tested, the tissue of origin are shown below in Table 1: Procedure for Determining Half Maximal Inhibition Concentration IC50 • 1. Harvested cells during the logarithmic growth period and count cell number using Count-star. • 2. Adjusted cell concentrations to 4.44×10^4 cells/mL with respective culture medium. • 3. Added 90 μL cell suspensions to two 96-well plates (plates A and B) with the final cell density of 4×10^3 cells/well. (cell concentration was adjusted according to the data base or density optimization assay.) • 4a. […]

[7] = tested on: HeLa; experiment: CellTiter-Glo cell viability, HeLa
Experimental: as §2

[8] = tested on: L-363; experiment: CellTiter-Glo cell viability, L-363
Experimental: as §1

[9] = tested on: JHH-7; experiment: CellTiter-Glo cell viability, JHH-7
Experimental: as §1

[10] = tested on: NAMALWA; experiment: CellTiter-Glo cell viability, NAMALWA
Experimental: as §1

[11] = tested on: NALM-6; experiment: CellTiter-Glo cell viability, NALM-6
Experimental: as §1

[12] = tested on: MOLP8; experiment: CellTiter-Glo cell viability, MOLP8
Experimental: as §1

[13] = tested on: Pfeiffer; experiment: CellTiter-Glo cell viability, Pfeiffer
Experimental: as §1

[14] = tested on: AMO-1; experiment: CellTiter-Glo cell viability, AMO-1
Experimental: as §1

[15] = tested on: THP-1; experiment: CellTiter-Glo cell viability, THP-1
Experimental: as §1

[16] = tested on: Hep3B; experiment: CellTiter-Glo cell viability, Hep3B
Experimental: as §1

[17] = tested on: 50 cancer cell lines; experiment: 50 cell line screen, summary of eradication; settings: out of 50 cell lines
Experimental: as §1, with “control.” for “control. Cell Lines. All cell lines were cultured in media supplemented with 10-15% FBS, at a temperature of 37° C., 5% CO2, and 95% humidity. The reference control drug for all cell lines was cisplatin, to be used for genomic analysis. The cell lines tested, the tissue of origin are shown below in Table 1:”, “control)×100%. Stratifying the cell line panel makeup, the 50 cell lines included 30 blood cancers (17 leukemia and 13 lymphoma cell lines) and 20 solid tumor cancers, including breast (3), cervical (1), colorectum (1), liver (4), lung (4), ovarian (2), pancreas (2), prostate (2), and uterine (1) cancer cell lines.” for “control)×100%.”

[18] = 96 h, top conc. 50 μg/mL Zn(II) agent, 100 μM cisplatin

N.N.[Cl][Pt][Cl] [Cisplatin]
Absolute IC50 ([1]; 96 h, CellTiter-Glo): 0.20 µg/mL | % inhibition at top conc. [1, 18]: 99.24% | HillSlope ([1]; 96 h dose-response fit): −2.37 | Absolute IC50 ([2]; 96 h, CellTiter-Glo): 0.32 µg/mL | % inhibition at top conc. [2, 18]: 100.00% | HillSlope ([2]; 96 h dose-response fit): −3.28 | Absolute IC50 ([3]; 96 h, CellTiter-Glo): 2.13 µg/mL | % inhibition at top conc. [3, 18]: 99.93% | HillSlope ([3]; 96 h dose-response fit): −1.28 | Absolute IC50 ([4]; 96 h, CellTiter-Glo): 1.13 µg/mL | % inhibition at top conc. [4, 18]: 93.27% | HillSlope ([4]; 96 h dose-response fit): −1.55 | Absolute IC50 ([5]; 96 h, CellTiter-Glo): 0.14 µg/mL | % inhibition at top conc. [5, 18]: 99.99% | HillSlope ([5]; 96 h dose-response fit): −1.70 | % inhibition at top conc. [6, 18]: 96.37% | HillSlope ([6]; 96 h dose-response fit): −0.60 | % inhibition at top conc. [7, 18]: 99.91% | HillSlope ([7]; 96 h dose-response fit): −1.70 | Absolute IC50 ([8]; 96 h, CellTiter-Glo): 0.83 µg/mL | % inhibition at top conc. [8, 18]: 99.98% | HillSlope ([8]; 96 h dose-response fit): −2.08 | Absolute IC50 ([9]; 96 h, CellTiter-Glo): 0.44 µg/mL | % inhibition at top conc. [9, 18]: 99.16% | HillSlope ([9]; 96 h dose-response fit): −0.80 | Absolute IC50 ([10]; 96 h, CellTiter-Glo): 0.07 µg/mL | % inhibition at top conc. [10, 18]: 99.99% | HillSlope ([10]; 96 h dose-response fit): −3.97 | Absolute IC50 ([11]; 96 h, CellTiter-Glo): 0.21 µg/mL | % inhibition at top conc. [11, 18]: 99.64% | HillSlope ([11]; 96 h dose-response fit): −2.22 | Absolute IC50 ([12]; 96 h, CellTiter-Glo): 0.16 µg/mL | % inhibition at top conc. [12, 18]: 99.98% | HillSlope ([12]; 96 h dose-response fit): −2.16 | Absolute IC50 ([13]; 96 h, CellTiter-Glo): 0.83 µg/mL | % inhibition at top conc. [13, 18]: 99.98% | HillSlope ([13]; 96 h dose-response fit): −1.79 | Absolute IC50 ([14]; 96 h, CellTiter-Glo): 0.27 µg/mL | % inhibition at top conc. [14, 18]: 99.99% | HillSlope ([14]; 96 h dose-response fit): −3.34 | Absolute IC50 ([15]; 96 h, CellTiter-Glo): 0.39 µg/mL | % inhibition at top conc. [15, 18]: 99.98% | HillSlope ([15]; 96 h dose-response fit): −3.03 | Absolute IC50 ([16]; 96 h, CellTiter-Glo): 0.78 µg/mL | % inhibition at top conc. [16, 18]: 99.58% | HillSlope ([16]; 96 h dose-response fit): −1.50 | number of cell lines with more than 97% eradication [17]: 45 | number of cell lines with more than 99% eradication [17]: 39 | number of cell lines with poor response of less than 90% eradication [17]: 2
